Source: ChEMBL document CHEMBL5634084, “Design and optimization of selective and potent CDK9 inhibitors with flavonoid scaffold for the treatment of acute myeloid leukemia” (Eur J Med Chem, 2023)
≈ marks a conversion by molar mass, not a printed value. Values belong to the compound of their own block, whether it stands above or below them. Calls of active or inactive are those of the source. No cut-off for these calls is given here.

What was measured:
[1] = biological target: CDK2/Cyclin A2 (Homo sapiens) (UniProt P24941+P20248); assay: Inhibition of CDK2/CyclinA2 (unknown origin) at 100 nM by ADP-Glo assay relative to control; format: protein-complex assay
[2] = biological target: CDK9/cyclin T1 (Homo sapiens) (UniProt O60563+P50750); assay: Inhibition of CDK9/CyclinT1 (unknown origin) at 100 nM by ADP-Glo assay relative to control; format: protein-complex assay
MV4-11 [3] = assay: Antiproliferative activity against human MV4-11 cells assessed as reduction in cell viability measured after 72 hrs; format: functional, cell-based; conditions: MV4-11, 72 h
MOLM-13 = assay: Antiproliferative activity against human MOLM-13 cells assessed as reduction in cell viability measured after 72 hrs; format: functional, cell-based; conditions: MOLM-13, 72 h
HL-60 = assay: Antiproliferative activity against human HL-60 cells assessed as reduction in cell viability measured after 72 hrs; format: functional, cell-based; conditions: HL-60, 72 h
[4] = Toxicity in BALB/c mouse xenografted with human MV4-11 cells assessed as effect on body weight at 10 to 20 mg/kg, iv qd; format: organism-based; conditions: in vivo, dose 10-20 mg/kg
[5] = Metabolic stability of the compound in rat liver microsomes at 10 uM measured for 60 mins in presence of NADPH by LC-MS/MS analysis; format: ADME, Microsome; conditions: 1 h
THP-1 = assay: Antiproliferative activity against human THP-1 cells assessed as reduction in cell viability measured after 72 hrs; format: functional, cell-based; conditions: THP-1, 72 h
[6] = Solubility of the compound in water at pH 7.4; format: physicochemical
SW480 = assay: Antiproliferative activity against human SW480 cells assessed as reduction in cell viability measured after 72 hrs; format: functional, cell-based; conditions: SW480, 72 h
[7] = Cytotoxicity against human HEK293 cells assessed as reduction in cell viability measured after 72 hrs; format: toxicity, cell-based
[8] = Cytotoxicity against human L02 cells assessed as reduction in cell viability measured after 72 hrs; format: toxicity, cell-based
[9] = Metabolic stability of the compound in rat plasma at 10 uM measured for 60 mins by LC-MS/MS analysis; format: ADME, cell-free; conditions: 1 h
MCF7 = assay: Antiproliferative activity against human MCF7 cells assessed as reduction in cell viability measured after 72 hrs; format: functional, cell-based; conditions: MCF7, 72 h
[10] = biological target: Cyclin-dependent kinase 4/cyclin D1 (Homo sapiens, UniProt P11802); assay: Inhibition of CDK4/CyclinD1 (unknown origin) by ADP-Glo assay; format: protein-complex assay
Chain of Cyclin-dependent kinase 4/cyclin D1 (P11802 whole entry): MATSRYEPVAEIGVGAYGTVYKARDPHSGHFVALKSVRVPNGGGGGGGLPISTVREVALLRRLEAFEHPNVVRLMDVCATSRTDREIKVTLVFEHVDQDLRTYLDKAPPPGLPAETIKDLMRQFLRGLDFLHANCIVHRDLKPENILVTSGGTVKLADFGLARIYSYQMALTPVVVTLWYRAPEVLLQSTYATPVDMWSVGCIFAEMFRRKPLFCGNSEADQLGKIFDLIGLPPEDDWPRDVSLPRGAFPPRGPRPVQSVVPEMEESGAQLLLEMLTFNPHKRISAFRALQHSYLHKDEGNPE
Chain of Cyclin-dependent kinase 4/cyclin D1 (P24385 whole entry, further chain): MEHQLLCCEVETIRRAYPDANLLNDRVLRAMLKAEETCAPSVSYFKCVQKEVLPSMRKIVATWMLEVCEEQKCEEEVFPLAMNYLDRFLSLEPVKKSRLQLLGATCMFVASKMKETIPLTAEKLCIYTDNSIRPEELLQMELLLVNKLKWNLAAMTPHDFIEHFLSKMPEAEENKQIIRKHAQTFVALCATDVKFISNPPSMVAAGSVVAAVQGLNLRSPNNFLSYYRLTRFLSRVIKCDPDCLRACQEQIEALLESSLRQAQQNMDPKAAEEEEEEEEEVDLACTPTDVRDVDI

[11] = Inhibition of CDK1/CyclinA2 (unknown origin) by ADP-Glo assay; set-up: species or system Homo sapiens
HepG2 = assay: Antiproliferative activity against human HepG2 cells assessed as reduction in cell viability measured after 72 hrs; format: functional, cell-based; conditions: HepG2, 72 h
CDK7/Cyclin H/MNAT1 = CDK7/Cyclin H/MNAT1 (Homo sapiens, UniProt P50613); assay: Inhibition of CDK7/Cyclin H/MAT1 (unknown origin) by ADP-Glo assay; format: protein-complex assay
Chain of CDK7/Cyclin H/MNAT1 (P51946 whole entry): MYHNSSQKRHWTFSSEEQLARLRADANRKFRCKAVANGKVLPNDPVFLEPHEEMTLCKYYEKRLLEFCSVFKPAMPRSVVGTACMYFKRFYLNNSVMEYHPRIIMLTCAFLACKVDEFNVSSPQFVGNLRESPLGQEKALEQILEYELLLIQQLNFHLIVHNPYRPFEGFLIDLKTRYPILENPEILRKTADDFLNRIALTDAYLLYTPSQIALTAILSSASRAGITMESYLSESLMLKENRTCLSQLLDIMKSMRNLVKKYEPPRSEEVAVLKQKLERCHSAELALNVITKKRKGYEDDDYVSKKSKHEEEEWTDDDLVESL
Chain of CDK7/Cyclin H/MNAT1 (P50613 whole entry): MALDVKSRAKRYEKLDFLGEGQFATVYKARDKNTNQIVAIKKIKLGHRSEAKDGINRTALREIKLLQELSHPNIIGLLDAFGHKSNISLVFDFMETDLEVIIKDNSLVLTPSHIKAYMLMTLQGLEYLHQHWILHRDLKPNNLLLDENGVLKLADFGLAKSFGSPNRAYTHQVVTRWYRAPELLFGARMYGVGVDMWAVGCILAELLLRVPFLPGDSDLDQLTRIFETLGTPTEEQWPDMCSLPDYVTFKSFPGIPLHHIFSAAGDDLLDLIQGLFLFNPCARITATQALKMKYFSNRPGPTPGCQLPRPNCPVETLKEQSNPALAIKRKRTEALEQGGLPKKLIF
Chain of CDK7/Cyclin H/MNAT1 (P51948 whole entry, further chain): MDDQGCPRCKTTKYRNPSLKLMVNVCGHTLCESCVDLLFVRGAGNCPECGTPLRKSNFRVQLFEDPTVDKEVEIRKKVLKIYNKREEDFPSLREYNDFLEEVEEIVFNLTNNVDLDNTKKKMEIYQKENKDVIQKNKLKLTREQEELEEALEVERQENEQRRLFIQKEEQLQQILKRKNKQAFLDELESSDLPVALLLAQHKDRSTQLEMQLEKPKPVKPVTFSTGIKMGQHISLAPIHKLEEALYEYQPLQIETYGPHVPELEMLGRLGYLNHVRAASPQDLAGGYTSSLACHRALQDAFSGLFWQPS

MV4-11 [12] = assay: Antitumor activity against human MV4-11 cells xenografted in BALB/c mouse assessed as inhibition of tumor growth at 20 mg/kg, iv qd and measured every 2 days; format: functional; conditions: MV4-11, 48 h, read-out: TGI
HCT-116 = assay: Antiproliferative activity against human HCT-116 cells assessed as reduction in cell viability measured after 72 hrs; format: functional, cell-based; conditions: HCT-116, 72 h
[13] = Metabolic stability of the compound in mouse liver microsomes at 10 uM measured for 60 mins in presence of NADPH by LC-MS/MS analysis; format: ADME, Microsome; conditions: 1 h
CDK6/cyclin D1 = CDK6/cyclin D1 (Homo sapiens, UniProt Q00534); assay: Inhibition of CDK6/CyclinD1 (unknown origin) by ADP-Glo assay; format: protein-complex assay
Chain of CDK6/cyclin D1 (P24385 whole entry): as the sequence (P24385 whole entry, further chain) above
Chain of CDK6/cyclin D1 (Q00534 whole entry): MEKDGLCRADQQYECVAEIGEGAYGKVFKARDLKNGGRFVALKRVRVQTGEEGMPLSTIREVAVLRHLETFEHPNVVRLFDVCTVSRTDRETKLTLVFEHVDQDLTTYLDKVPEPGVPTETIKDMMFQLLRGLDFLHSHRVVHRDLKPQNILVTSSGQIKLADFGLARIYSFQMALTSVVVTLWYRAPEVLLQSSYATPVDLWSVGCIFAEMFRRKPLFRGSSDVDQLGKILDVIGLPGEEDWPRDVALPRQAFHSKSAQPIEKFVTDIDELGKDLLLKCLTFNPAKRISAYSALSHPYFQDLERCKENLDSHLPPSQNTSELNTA

[14] = Toxicity in BALB/c mouse xenografted with human MV4-11 cells assessed as animal's mortality at 10 to 20 mg/kg, iv qd; format: organism-based; conditions: in vivo, dose 10-20 mg/kg
MV4-11 [15] = assay: Antitumor activity against human MV4-11 cells xenografted in BALB/c mouse assessed as inhibition of tumor growth at 10 mg/kg, iv qd and measured every 2 days; format: functional; conditions: MV4-11, 48 h, read-out: TGI
HT-29 = assay: Antiproliferative activity against human HT-29 cells assessed as reduction in cell viability measured after 72 hrs; format: functional, cell-based; conditions: HT-29, 72 h
BT-549 = assay: Antiproliferative activity against human BT-549 cells assessed as reduction in cell viability measured after 72 hrs; format: functional, cell-based; conditions: BT-549, 72 h
A549 = assay: Antiproliferative activity against human A549 cells assessed as reduction in cell viability measured after 72 hrs; format: functional, cell-based; conditions: A549, 72 h

inhibition [1]: 17.5%
inhibition [2]: 74.4%
IC50 (MV4-11 [3]): 170 nM
SMILES: COc1cc(O)c2c(=O)cc(-c3ccc(N4CCOCC4)cc3)oc2c1N1CCNCC1

SMILES: COc1cc(O)c2c(=O)cc(-c3ccc(N4CCCNCC4)cc3)oc2c1C1=CCN(C)CC1
inhibition [1]: 32.5%
inhibition [2]: 99%
IC50 (MV4-11 [3]): 150 nM

inhibition [1]: inactive
inhibition [2]: 17.6%
IC50 (MV4-11 [3]): 70 nM
SMILES: COc1cc(O)c2c(=O)cc(-c3ccc(N4CCN(C)CC4)cc3)oc2c1N1CCCC1

inhibition [1]: inactive
inhibition [2]: 47.5%
IC50 (MV4-11 [3]): 1230 nM
SMILES: COc1cc(O)c2c(=O)cc(-c3ccc(N4CCN(C)CC4)cc3)oc2c1N1CCCCC1

SMILES: COc1cc(O)c2c(=O)cc(-c3ccc(N4CCN(C)CC4)cc3)oc2c1N1CCNCC1
IC50 (MOLM-13): 1110 nM
IC50 (HL-60): 120 nM
Activity [4]: Non-Toxic
Stability [5]: Stable
IC50 (THP-1): 4.26 µM
solubility [6]: 450 µg/mL (≈ 999 µM)
IC50 (SW480): 990 nM
IC50 at 72 h [7]: 25.5 µM
IC50 at 72 h [8]: 17.7 µM
Stability [9]: Stable
inhibition [1]: 8.3%
IC50 (MCF7): 1500 nM
IC50 [10]: 311 nM
IC50 [11]: 1780 nM
IC50 (HepG2): 1770 nM
IC50 (CDK7/Cyclin H/MNAT1): 4.52 µM
inhibition in vivo at 20 mg/kg (MV4-11 [12]): 61%
IC50 (HCT-116): 690 nM
Stability [13]: Stable
inhibition [2]: 75%
IC50 (CDK6/cyclin D1): 2220 nM
Activity [14]: Non-Toxic
IC50 (MV4-11 [3]): 80 nM
inhibition in vivo at 10 mg/kg (MV4-11 [15]): 48%
IC50 (HT-29): 880 nM
IC50 (BT-549): 1850 nM
IC50 (A549): 1150 nM

inhibition [1]: 29%
inhibition [2]: 90.9%
IC50 (MV4-11 [3]): 330 nM
SMILES: COc1cc(O)c2c(=O)cc(-c3ccc(N4CCC(N5CCOCC5)CC4)cc3)oc2c1C1=CCN(C)CC1

inhibition [1]: 4.7%
inhibition [2]: 79.6%
IC50 (MV4-11 [3]): 170 nM
SMILES: COc1cc(O)c2c(=O)cc(-c3ccc(N4CCCC4)cc3)oc2c1N1CCNCC1

inhibition [1]: 14.2%
inhibition [2]: 75.8%
IC50 (MV4-11 [3]): 2020 nM
SMILES: COc1cc(O)c2c(=O)cc(-c3ccc(N4CCN(C)CC4)cc3)oc2c1Oc1c(C)n[nH]c1C

inhibition [1]: inactive
inhibition [2]: 1.4%
IC50 (MV4-11 [3]): 70 nM
SMILES: COc1cc(O)c2c(=O)cc(-c3ccc(N4CCN(C)CC4)cc3)oc2c1[C@H]1CCN(C)[C@@H]1CO

inhibition [1]: inactive
inhibition [2]: 5.1%
IC50 (MV4-11 [3]): 2020 nM
SMILES: COc1cc(O)c2c(=O)cc(-c3ccc(N4CCN(C)CC4)cc3)oc2c1

inhibition [1]: inactive
inhibition [2]: 44.4%
IC50 (MV4-11 [3]): 110 nM
SMILES: COc1cc(O)c2c(=O)cc(-c3ccc(N4CCN(C)CC4)cc3)oc2c1N1CCOCC1

inhibition [1]: 24.5%
inhibition [2]: 70%
IC50 (MV4-11 [3]): 210 nM
SMILES: COc1cc(O)c2c(=O)cc(-c3ccc(N4CCN(C)CC4)cc3)oc2c1N1CCC(N2CCOCC2)CC1

inhibition [1]: 5.4%
inhibition [2]: 64.9%
IC50 (MV4-11 [3]): 180 nM
SMILES: COc1cc(O)c2c(=O)cc(-c3ccc(N4CCN(C)CC4)cc3)oc2c1[C@H]1CCN(C)C[C@H]1O

inhibition [1]: 18.9%
inhibition [2]: 78%
IC50 (MV4-11 [3]): 210 nM
SMILES: COc1cc(O)c2c(=O)cc(-c3ccc(N4CCCNCC4)cc3)oc2c1N1CCNCC1

inhibition [1]: 23.5%
inhibition [2]: 75.8%
IC50 (MV4-11 [3]): 100 nM
SMILES: COc1cc(O)c2c(=O)cc(-c3ccc(N4CCN(C)CC4)cc3)oc2c1N1CCN(C)CC1

inhibition [1]: 4.7%
inhibition [2]: 78%
IC50 (MV4-11 [3]): 310 nM
SMILES: COc1cc(O)c2c(=O)cc(-c3ccc(N4CCC(N5CCOCC5)CC4)cc3)oc2c1N1CCNCC1

inhibition [1]: inactive
inhibition [2]: 70.8%
IC50 (MV4-11 [3]): 100 nM
SMILES: COc1cc(O)c2c(=O)cc(-c3ccc(N4CCNCC4)cc3)oc2c1N1CCNCC1

SMILES: COc1cc(O)c2c(=O)cc(-c3ccc(N4CCNCC4)cc3)oc2c1C1=CCN(C)CC1
inhibition [1]: inactive
inhibition [2]: 98.6%
IC50 (MV4-11 [3]): 130 nM
